ChEMBL document CHEMBL1155013, “Design, synthesis, and evaluation of fused heterocyclic analogs of SCH 58261 as adenosine A2A receptor antagonists” (Bioorg Med Chem Lett, 2008)

Key:
Format in all cases: ADME, organism-based
[1] = AUC (0 to 6 hrs) in rat at 3 mg/kg, po; set-up: time < 6 hr, dose 3 mg/kg, route oral; conditions: plasma
[2] = AUC in rat at 3 mg/kg, po; set-up: dose 3 mg/kg, route oral; conditions: plasma
[3] = Half life in rat at 3 mg/kg, po; set-up: dose 3 mg/kg, route oral; conditions: in vivo
[4] = Plasma clearance in rat at 3 mg/kg, po; set-up: dose 3 mg/kg, route oral
[5] = Bioavailability in rat at 3 mg/kg, po; conditions: in vivo

| SMILES | AUC(0-t) at 6 h [1] [ng·h/mL] | further results |
| --- | --- | --- |
| COCCOc1cccc2c1CN(CCn1ncc3c1nc(N)n1nc(-c4ccco4)nc31)CC2 | 31 | – |
| COCCOc1ccc2c(c1)CCN(CCn1ncc3c1nc(N)n1nc(-c4ccco4)nc31)CC2 | 103 | – |
| Nc1nc2c(cnn2CCN2CCc3ccccc3C2)c2nc(-c3ccco3)nn12 | 60 | – |
| COCCOc1cccc2c1CN(CCn1ncc3c1nc(N)n1nc(-c4ccco4)nc31)C2 | 215 | – |
| Nc1nc2c(cnn2CCN2Cc3ccccc3C2)c2nc(-c3ccco3)nn12 | 287 | – |
| COc1ccc2c(c1)CN(CCn1ncc3c1nc(N)n1nc(-c4ccco4)nc31)C2 | 199 | – |
| COc1ccc2c(c1)CN(CCn1ncc3c1nc(N)n1nc(-c4ccco4)nc31)CC2 | 357 | – |
| Nc1nc2c(cnn2CCN2CCc3ccccc3CC2)c2nc(-c3ccco3)nn12 | 48 | – |
| COCCOc1cnc2c(c1)CN(CCn1ncc3c1nc(N)n1nc(-c4ccco4)nc31)CC2 | 477 | – |
| Nc1nc2c(cnn2CCN2CCc3ncc(C4CC4)cc3C2)c2nc(-c3ccco3)nn12 | 214 | – |
| COc1ccc2c(c1)CCN(CCn1ncc3c1nc(N)n1nc(-c4ccco4)nc31)C2 | 688 | – |

Further lines, with some results ahead:

| AUC(0-t) at 6 h [1] [ng·h/mL] | SMILES | further results |
| --- | --- | --- |
| 1790 | Nc1nc2c(cnn2CCN2CCc3ncccc3C2)c2nc(-c3ccco3)nn12 | – |
| 1240 | Nc1nc2c(cnn2CCN2CCc3nc(C(F)(F)F)ccc3C2)c2nc(-c3ccco3)nn12 | – |
| 3490 | Cc1cnc2c(c1)CN(CCn1ncc3c1nc(N)n1nc(-c4ccco4)nc31)CC2 | AUC [2]: 7980 ng·h/mL; half-life [3]: 11.3 h; CL/F [4]: 4.7 mL/min/kg; bioavailability [5]: 71% |
| 467 | Nc1nc2c(cnn2CCN2CCc3ncncc3C2)c2nc(-c3ccco3)nn12 | – |
| 2020 | Nc1nc2c(cnn2CCN2CCc3ncc(Br)cc3C2)c2nc(-c3ccco3)nn12 | – |
